Columns and labels:
[1] = molecular target: T1, human SLC6A19 and TMEM27 (Homo sapiens, UniProt Q695T7); assay: 13C6,15N-isoleucine uptake in CHO cells with doxycycline-inducible expression of human SLC6A19 and TMEM27, RapidFire mass spectrometry (Example B-2); type: cell-based; conditions: read-out: SLC6A19_RapidFire Uptake Assay IC50
T1 construct: expressed in transfected cells
T1 sequence (Q695T7 1-634): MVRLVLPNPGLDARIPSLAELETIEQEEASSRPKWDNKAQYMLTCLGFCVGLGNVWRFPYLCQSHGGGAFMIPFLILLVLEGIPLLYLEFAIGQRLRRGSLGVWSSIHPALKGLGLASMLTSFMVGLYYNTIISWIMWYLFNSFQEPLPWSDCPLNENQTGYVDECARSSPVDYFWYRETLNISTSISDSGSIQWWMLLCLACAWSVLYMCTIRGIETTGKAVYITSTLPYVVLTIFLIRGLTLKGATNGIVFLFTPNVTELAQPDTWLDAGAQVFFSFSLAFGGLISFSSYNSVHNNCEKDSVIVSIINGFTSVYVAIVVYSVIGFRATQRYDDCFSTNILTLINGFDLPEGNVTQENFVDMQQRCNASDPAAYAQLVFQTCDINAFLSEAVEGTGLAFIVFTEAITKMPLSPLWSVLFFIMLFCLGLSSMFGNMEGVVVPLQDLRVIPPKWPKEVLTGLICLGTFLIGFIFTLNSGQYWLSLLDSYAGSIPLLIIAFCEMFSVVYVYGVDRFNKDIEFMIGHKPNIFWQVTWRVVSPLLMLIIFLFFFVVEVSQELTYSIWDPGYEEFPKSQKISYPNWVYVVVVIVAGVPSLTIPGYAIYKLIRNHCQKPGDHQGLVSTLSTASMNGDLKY
T1 sequence (Q9HBJ8 15-222 partner): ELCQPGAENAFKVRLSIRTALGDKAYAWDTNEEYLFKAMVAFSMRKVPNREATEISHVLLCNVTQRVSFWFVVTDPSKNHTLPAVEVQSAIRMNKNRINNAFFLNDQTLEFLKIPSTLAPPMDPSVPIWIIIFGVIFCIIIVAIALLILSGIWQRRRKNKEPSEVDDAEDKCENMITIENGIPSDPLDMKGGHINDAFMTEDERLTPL
Description: Assay ready vials of CHO cells with doxycycline inducible expression of human SLC6A19 and TMEM27 were thawed, plated in T175 flasks containing DMEM/F12 media, 10% FBS, 1% Penicillin-Streptomycin, 1× UltraGlutamate, 1 mM Sodium Pyruvate, Sodium Bicarbonate (7.5 mL of 7.5% solution in 500 mL media final), 5 μg/mL Blasticidin, 150 μg/mL Hygromycin B Gold, and 500 μg/mL G418, and incubated (humidified, 37° C. with 5% CO2) for 48 hours. Media was then removed, flasks were washed with 20 mL of DPBS, and 5 mL of TrypLE™ Express was added to each flask to initiate cell dissociation. After 5 minutes, 10 mL of cell culture media was added to each flask and mixed. The cell suspension was collected and centrifuged for 5 minutes at 200×g. The supernatant was removed, and the pellet was resuspended in 10 mL of cell culture media. Resuspended cells were counted using a Vi-Cell. 30 μL/well (20,000 cells/well) of cell suspension was added to Poly-D-Lysine 384-well black/clear plates. Plates were incubated (humidified, 37° C. with 5% CO2) for 24 hours. To induce expression of human SLC6A19 and TMEM27, 10 μL of assay culture media containing 4 μg/mL doxycycline was added to each well. Assay plates were then incubated (humidified, 37° C. with 5% CO2) overnight. After incubation, the media was removed, and wells were washed 3 times with 40 μL of warmed DPBS. Next, 10 μL of warmed assay buffer (137 mM NaCl, 5 mM KCl, 1 mM CaCl2), 1 mM MgCl2, 10 mM HEPES, 10 mM glucose, pH 7.2) was added to each well. 10 μL/well of test compound or positive control compound to define 0% activity (i.e., 100% inhibition), was then added into each well. All compounds were plated in a duplicate 10-point dilution series that consisted of 2-fold dilutions. The plates were incubated (humidified, 37° C. with 5% C2) with compound for 20 minutes. Afterwards, 20 μL/well of 2 mM 13C6,15N-1-isoleucine was added to each well and plates were incubated again (humidified, 37° C. with 5% C02) for another 20 minutes. Assay buffer was then removed, and plates were washed. 70 μL/well of stop solution (75% acetonitrile, 25% HPLC grade water, 250 nM 1-leucine-1-13C (RapidFire standard)) was added to each well. The plates were sealed and then placed in a −20° C. freezer for 20 minutes. The plates were thawed at room temperature for 20 minutes and then centrifuge for 20 minutes at 3000 rpm. Using an ABSciex API4000 mass spectrometer, processed samples were loaded onto the graphitic carbon SPE-column. The time for aspiration, load/wash, elution and re-equilibration time was 600, 1500, 3000 and 500 milliseconds, respectively. Peak areas were calculated using RapidFire Integrator software.

[2] = molecular target: T1, human SLC6A19 and TMEM27; assay: Radiolabelled (3H) leucine uptake in CHO cells with doxycycline-inducible expression of human SLC6A19 and TMEM27 (Example B-1); type: cell-based; conditions: CHO cells with doxycycline-inducible expression of human SLC6A19 and TMEM27, read-out: SLC6A19_Radioligand Uptake Assay IC50
How it was run: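 CHO cells were induced with doxycycline for 18 h at 37 °C, washed in HBSS, then exposed to compounds for 1 h: 8-point, 3-fold dilutions in duplicate, 0.5% DMSO final. Uptake measured by scintillation counting after 2 h shaking. Activity normalized with positive control as 0% and DMSO as 100%.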

IC50 [1]	IC50 [2]	SMILES
504 nM	–	CC1(C(=O)NCc2cc3ccc(NCc4ccccc4)cc3[nH]2)CC1 [Compound 3, N-((6-(benzylamino)-1H-indol-2-yl)methyl)-1-methylcyclopropanecarboxamide]
1830 nM	–	CC1(C(=O)NCc2cc3ccc(NCc4ccccn4)cc3[nH]2)CC1 [Compound 4, 1-methyl-N-((6-((pyridin-2-ylmethyl)amino)-1H-indol-2-yl)methyl)cyclopropane-1-carboxamide]
53 nM	–	CC1(C(=O)NCc2cc3ccc(OCc4ccccc4)cc3[nH]2)CC1 [Compound 5, N-((6-(benzyloxy)-1H-indol-2-yl)methyl)-1-methylcyclopropanecarboxamide]
225 nM	–	CC1(C(=O)NCc2cc3cc(F)c(OCc4cocn4)cc3[nH]2)CC1 [Compound 7, N-((5-fluoro-6-(oxazol-4-ylmethoxy)-1H-indol-2-yl)methyl)-1-methylcyclopropane-1-carboxamide]
130 nM	–	Cc1cc2cc(CNC(=O)C3(C)CC3)[nH]c2cc1OCc1ccon1 [Compound 10, N-((6-(isoxazol-3-ylmethoxy)-5-methyl-1H-indol-2-yl)methyl)-1-methylcyclopropane-1-carboxamide]
168 nM	–	CC1(C(=O)NCc2cc3ccc(OCc4ccon4)cc3[nH]2)CC1 [Compound 20, N-((6-(isoxazol-3-ylmethoxy)-1H-indol-2-yl)methyl)-1-methylcyclopropane-1-carboxamide]
625 nM	–	Cc1ccc(COc2cc3[nH]c(CNC(=O)C4(C)CC4)cc3cc2Cl)cn1 [Compound 37, N-((5-chloro-6-((6-methylpyridin-3-yl)methoxy)-1H-indol-2-yl)methyl)-1-methylcyclopropane-1-carboxamide]
44 nM	–	CC1(C(=O)NCc2cc3cc(Cl)c(OCc4ccsn4)cc3[nH]2)CC1 [Compound 38, N-((5-chloro-6-(isothiazol-3-ylmethoxy)-1H-indol-2-yl)methyl)-1-methylcyclopropane-1-carboxamide]
–	1970 nM	CC1(C(=O)NCc2cc3cc(-c4ccon4)c(OCc4cscn4)cc3[nH]2)CC1 [Compound 659, N-((5-(isoxazol-3-yl)-6-(thiazol-4-ylmethoxy)-1H-indol-2-yl)methyl)-1-methylcyclopropane-1-carboxamide]
–	1000 nM	CC1(C(=O)NCc2cc3cc(-c4cnco4)c(OCc4cscn4)cc3[nH]2)CC1 [Compound 661, 1-methyl-N-((5-(oxazol-5-yl)-6-(thiazol-4-ylmethoxy)-1H-indol-2-yl)methyl)cyclopropane-1-carboxamide]

Second part, the compound before the results:

SMILES	IC50 [1]	IC50 [2]
CC1(C(=O)NCc2cc3ccc([C@@H]4C[C@H]4c4ccccc4)cc3[nH]2)CC1 (racemic) [Compound 154, trans-1-methyl-N-((6-(2-phenylcyclopropyl)-1H-indol-2-yl)methyl)cyclopropane-1-carboxamide]	1360 nM	–
CCC(=O)NCc1cc2ccc(NCc3ccccc3)cc2[nH]1 [Compound 1, N-((6-(benzylamino)-1H-indol-2-yl)methyl)propionamide]	5540 nM	–
CN(Cc1ccccc1)c1ccc2cc(CNC(=O)C3(C)CC3)[nH]c2c1 [Compound 2, N-((6-(benzyl(methyl)amino)-1H-indol-2-yl)methyl)-1-methylcyclopropane-1-carboxamide]	992 nM	–
CC1(C(=O)NCc2cc3cc(F)c(OCc4cncs4)cc3[nH]2)CC1 [Compound 9, N-((5-fluoro-6-(thiazol-5-ylmethoxy)-1H-indol-2-yl)methyl)-1-methylcyclopropane-1-carboxamide]	271 nM	–
CC1(C(=O)NCc2cc3cc(C4(F)CC4)c(OCc4cscn4)cc3[nH]2)CC1 [Compound 656, N-((5-(1-fluorocyclopropyl)-6-(thiazol-4-ylmethoxy)-1H-indol-2-yl)methyl)-1-methylcyclopropane-1-carboxamide]	–	8470 nM
CC1(C(=O)NCc2cc3cc(C4CC4(F)F)c(OCc4cscn4)cc3[nH]2)CC1 (stereo not drawn) [Compound 657, N-((5-(2,2-difluorocyclopropyl)-6-(thiazol-4-ylmethoxy)-1H-indol-2-yl)methyl)-1-methylcyclopropane-1-carboxamide]	–	654 nM
CC1(C(=O)NCc2cc3cc(-c4ccno4)c(OCc4cscn4)cc3[nH]2)CC1 [Compound 660, N-((5-(isoxazol-5-yl)-6-(thiazol-4-ylmethoxy)-1H-indol-2-yl)methyl)-1-methylcyclopropane-1-carboxamide]	–	1580 nM
Cc1cc(COc2cc3[nH]c(CNC(=O)C(F)(F)F)cc3cc2Cl)on1 [Compound 662, N-((5-chloro-6-((3-methylisoxazol-5-yl)methoxy)-1H-indol-2-yl)methyl)-2,2,2-trifluoroacetamide]	–	123 nM
[2H]C([2H])([2H])c1cc(COc2cc3[nH]c(CNC(=O)C4(C)CC4)cc3cc2Cl)no1 [Compound 663, N-((5-chloro-6-((5-(methyl-d3)isoxazol-3-yl)methoxy)-1H-indol-2-yl)methyl)-1-methylcyclopropane-1-carboxamide]	–	134 nM
[2H]C([2H])([2H])c1cc(COc2cc3[nH]c(CNC(=O)C4(C)CC4)cc3cc2F)no1 [Compound 664, N-((5-fluoro-6-((5-(methyl-d3)isoxazol-3-yl)methoxy)-1H-indol-2-yl)methyl)-1-methylcyclopropane-1-carboxamide]	–	187 nM
Cc1cc(COc2cc3[nH]c(CNC(=O)[C@@H]4C[C@@H](F)CN4)cc3cc2Cl)on1 [Compound 665, (2S,4R)—N-((5-chloro-6-((3-methylisoxazol-5-yl)methoxy)-1H-indol-2-yl)methyl)-4-fluoropyrrolidine-2-carboxamide]	–	1560 nM
Cc1cc(COc2cc3[nH]c(CNC(=O)[C@@H]4CC(F)(F)CN4)cc3cc2Cl)on1 [Compound 666, (S)-N-((5-chloro-6-((3-methylisoxazol-5-yl)methoxy)-1H-indol-2-yl)methyl)-4,4-difluoropyrrolidine-2-carboxamide]	–	2990 nM
Cc1cc(COc2cc3[nH]c(CNC(=O)[C@@H]4C[C@@H](F)CN4C)cc3cc2Cl)on1 [Compound 667, (2S,4R)—N-((5-chloro-6-((3-methylisoxazol-5-yl)methoxy)-1H-indol-2-yl)methyl)-4-fluoro-1-methylpyrrolidine-2-carboxamide]	–	524 nM
Cc1cc(COc2cc3[nH]c(CNC(=O)[C@@H]4CC(F)(F)CN4C)cc3cc2Cl)on1 [Compound 668, (S)-N-((5-chloro-6-((3-methylisoxazol-5-yl)methoxy)-1H-indol-2-yl)methyl)-4,4-difluoro-1-methylpyrrolidine-2-carboxamide]	–	1150 nM

Source: US20240199546A1, “INHIBITORS OF SOLUTE CARRIER FAMILY 6A MEMBER 19 (SLC6A19) AND METHODS OF USE THEREOF” (Maze Therapeutics, Inc., priority 2022, published 2024)
